# Source: patent US12404332B2, “Methods for diagnosing and treating cancers” (Research Development Foundation, priority 2020, dated 2025)
# Residues, ends and D or L forms follow the SMILES beside them. *: point of attachment. Cbz = O=C(OCc1ccccc1)*
# What was measured:
# RT4 cells = assay: Chk1 inhibitor synthetic lethality with beta-lactam antibiotics, RT4 cells; assay type: cell-based, human; settings: for synthetic lethality with Chk1i: RT4 cells, Chk1i rabusertib
# Experimental: Additional experiments were performed, as follows. MB49 were plated at 2,000 cells/well in 96 well flat bottom plates and treated with PD-L1 depleting drugs, olaparib (2.5 μM), and combination for 96 hours. RT4 were plated at 2,000 cells/well in 96 well flat bottom plates and treated with cefepime, rabusertib (1 μM), praxasertib, or combination for 96 hours. ID8agg, 4T1, and B16 cells were plated on fibronectin at 500 cells/well and treated with cefepime, rabusertib, or combination for 96 hours. Normalized treatment combination to DDR inhibitor alone, and PD-L1 depleting drug to vehicle alone (DMSO) were evaluated.
# [1] = system: CTRL and PD-L1^KO RT4 cells; assay: Viability of RT4 cells treated with Chk1 inhibitor plus atezolizumab; assay type: cell-based, human; settings: in vitro, absence of immune cells
# Experimental: FIGS. 27A-H: Anti-PD-L1 antibodies mimic genetic PD-L1 depletion to impair tumor cell-intrinsic DDR signals and promote sensitivity to Chk1 inhibition in vitro and in vivo. Cell viability of FIG. 27A, CTRL and FIG. 27B, PD-L1^KORT4 cells treated with LY2603618 (Chk1 inhibitor) as shown plus IgG1 isotype or atezolizumab (atezo, 3 μg/ml) for 72 hours in vitro. Mean+SEM, n=6 replicates, ***, P<0.001, unpaired t-test. FIG. 27C, Immunoblot (IB) analysis of ATM, Chk2, γH2AX and vinculin (VINC) of RT4 cells treated in vitro with isotype, atezolizumab, Chk1i, or their combination. FIG. 27D, Viability of 4T1 cells as in panel A substituting anti-murine PD-L1 and isotype controls. FIG. 27E, IB of 4T1 as in panel FIG. 27C. FIG. 27F, Tumor curves of NSG mice (n=10 tumors/group) challenged with 4T1 tumor cells and treated with Chk1i±αPD-L1. FIG. 27G, Tumor curves and FIG. 27H, tumor weights in WT […] mice challenged and treated as in panel FIG. 27F. P values, two-way ANOVA.
# [2] = system: PD-L1, Chk2, gH2AX in RT4 cells; assay: Cefepime depletion of PD-L1 and Chk2, DNA damage (gH2AX); assay type: cell-based, human
# Experimental: Experiments were performed to see if beta-lactam antibiotics may deplete PD-L1 in cancer cells. RT4 cells were incubated at 80 μM cefepime.
# Next experiments were performed to see if beta-lacatam antibiotics can deplete Chk2 in vitro. RT4 cells were treated with 1 μM rabusertib (Chk1i), 75 μM cefepime (D7), or combination. Protein lysates were collected at 24, 48, 72, and 96 hours.
# PD-L1 = assay: Tumor cell PD-L1 depletion by drugs (flow cytometry, immunoblot); assay type: cell-based, human and mouse; settings: for expression of PD-L1 in cancer cells: summary statement
# Experimental: High throughput Screening: B16 PD-L1 RFP cells were treated with 2.5 and 10 μM compounds from the Prestwick and LOPAC Libraries for 48 hours using the Agilent Bravo liquid pipetting platform. Then, cells were washed with PBS, and fixed with 4% paraformaldehyde (Electron Microscopy Sciences, Hatsfield, PA, Cat 15714S) and labeled with 2 μg/ml DAPI, (Molecular Probes, Cat D1306) and 1 μg/ml Cell Mask-Blue (Invitrogen, Cat. H32720). Plates were then imaged using the Operetta High Content Imaging System, Perkin Elmer, Waltham (DAPI and Cell Mask Blue, Ex 360-400, Em 410-480), and the RFP channels (Ex 520-550, Em 560-630) channels. Agents effecting ≥2-fold PD-L1 reduction in the RFP reporter without loss of ≥20% cell viability were candidate PD-L1 depletion agents.
# Flow cytometry: Mice were sacrificed by cervical dislocation after induction of deep isoflurane anesthesia. ID8agg tumors were collected and cells were stained as described (Derup et al., 2020) using LSR II hardware and analyzed by FACS Diva (BD Bioscience) or Flow Jo software (Flow Jo, LLC). Anti-mouse (clone 10F.9G2) and human (clone 29E.2A3) PD-L1 [both PE/Cy7, Cat #124314 (mouse) 329718 (human)] were matched with isotype control. Apoptosis assessment used Annexin V and propidium iodide (Thermo Scientific) per manufacturer instruction.
# (§1) Western blotting and immunoprecipitation: To prepare whole cell lysates, cells were harvested and lysed in RIPA (radioimmunoprecipitation assay) buffer plus 1 mM phenylmethylsulphonyl fluoride and Halt protease/phosphatase inhibitor cocktail (Thermo Scientific) at 4° C. Protein concentrations were measured by BCA Protein Assay Kit (Thermo Scientific). Protein was run on precast 4-15% sodium dodecyl sulfate polyacrylamide gels (Bio-Rad), transferred to polyvinylidene fluoride membranes (GE Water and Process Technologies), and then blocked in 5% non-fat milk for 1 hour at room temperature. The membranes were then incubated with 1:1000 diluted primary antibodies against indicated proteins (Cell Signaling). Specific antibody binding was detected by chemiluminescence using Western Lightening Plus regent (Perkin Elmer). Cells for (co) immunoprecipitation experiments were seeded in 15-cm dishes and cultured as described, using 6 million cells per immunoprecipitation reaction. For protein ubiquitination, cells were lysed in denaturing buffer (50 mM Tris-HCl, 0.5 mM EDTA and 1% SDS) followed by heating at 95° C. for 10 minutes and then quenched with 9 volumes of quenching buffer (0.5% Triton X-100, 20 mM Tris-HCl (pH 8.0), 137 mM NaCl, 10% glycerol, 2 mM EDTA). Protease inhibitor cocktail (Roche) was added fresh to all buffers. Cell lysates were incubated on a rotator for 30 minutes at 4° C., and then centrifuged at 20,000 g for 15 minutes at 4° C. Supernatants were subsequently incubated with anti-PD-L1 antibody overnight and processed using Dynabeads Protein G for Immunoprecipitation (Thermo Fisher Scientific). The final eluate was processed and Western blotting was performed.
# mTORC1 = assay: Western blots for mTORC1 pathway and LC3 autophagy; assay type: cell-based
# Experimental: FIGS. 40A-C: CAMB suppresses mTORC1 signals and reduces TIC numbers. FIG. 40A, Western blots for proteins in the mTORC1 pathway. Cells were treated with chlorambucil as indicated concentration for 48 hours. FIG. 40B, Western blot for LC3I/II to assess autophagy in cell lysates treated±chlorambucil at indicated concentrations. FIG. 40C, Percent of ALDH^hi TIC by flow cytometry of ES2 cells cultured±chlorambucil. Percent CD44^+CD24^+ ID8agg TIC and CD44^+CD133^+CD24^+ B16 TIC detected by flow cytometry.
# as §1
# PD-L1 in OVCAR5 cells = assay: PD-L1 mRNA, protein and ubiquitination in OVCAR5 cells; assay type: cell-based, human; settings: OVCAR5 cells
# Experimental: FIGS. 39A-C: CAMB reduces PD-L1 through ubiquitination. FIG. 39A, RT-qPCR for PD-L1 mRNA in OVCAR5 and ID8agg cells treated with (+) or without (−) chlorambucil for 48 hours. (n=4). FIG. 39B, Western blot for PD-L1 protein in OVCAR5 cells with (+) or without (−) MG132 for 6 or 20 hours. (upper panel). PD-L1 expression in OVCAR5 cells treated with chlorambucil 48 hours and/or MG132 for 6 hours (lower panel). FIG. 39C, Ubiquitinated PD-L1 was immunoprecipitated (IP) and subjected to Western blot analysis with anti-ubiquitin (Ub) antibody. Cells were treated with chlorambucil for indicated times prior to ubiquitination analysis.
# as §1
# Quantitative Real-Time Reverse Transcriptase Polymerase Chain Reaction: Total RNA was isolated from homogenized whole lung tissue with Trizol reagent (Invitrogen) according to manufacturer instructions. […] Quantitative PCR (qPCR) was conducted using the Bio-Rad Real-Time PCR System (Applied Biosystems), amplified with transcript-specific primers with SYBR Green (Thermo Scientific), according to manufacturer instructions. […]
# [3] = system: UV induced TpN^61R derived CD274^+/+ or CD274^−/− melanoma cells; assay: Viability of de novo Nras CD274^+/+ versus CD274^−/− melanoma cells; assay type: cell-based, mouse; settings: in vitro
# From the text: FIGS. 26A-H: De novo PD-L1^KO tumors phenocopy important aspects of genetic PD-L1 depletion in established tumors. FIG. 26A, Melanoma-free survival of melanocyte specific CD274^fl,fl TpN^61R (KO) versus littermate (WT) autochthonous mice under conditions shown. FIG. 26B, Validation of PD-L1 expression by immunoblot (IB) of melanoma cells derived from UV induced (4.5 Kj/m^2) WT (CD274^+/+) or melanocyte specific CD274^KO (CD274^−/−) mice±in vitro interferon (IFN)-γ treatment. Viability curves of CD274^+/+ versus CD274^−/− cells treated with the selective Chk1 inhibitors FIG. 26C, prexasertib […] or FIG. 26D, rabusertib (LY2603618) in vitro at indicated concentrations. FIG. 26E, IB analysis of PD-L1, ATM, Chk2, and γH2AX of vehicle or rabusertib-treated CD274^+/+ and CD274^−/− cell lines. FIGS. 26F-H, Tumor growth curves in WT C57BL/6J mice (n=10 tumors/group) challenged with UV induced TpN^61R derived CD274^+/+ or CD274^−/− melanoma cells and treated with rabusertib (Chk1i, LY2603618) on the indicated treatment schedule. P values, two-way ANOVA.
# [4] = system: 4T1 murine breast cancer cells; assay: In vitro viability (MTT) of CTRL versus PD-L1^lo 4T1 cells; assay type: cell-based, mouse
# Experimental: (§2) Cells (1×10^3) were plated in 96 well plastic culture plates in respective medium and treated for 5 days with DDRi or 3 days with gemcitabine at indicated concentrations. Drug concentrations were carefully optimized in preliminary work not shown. Cell viability was by MTT (3-(4,5-dimethylthiazol-2-yl)-2,5-diphenyl tetrazolium bromide) at 5 mg/ml. Absorbance was measured at 540 nm. Results are presented as a mean+/−SEM of ≥6 replicates. Total cells and viability were confirmed using a Vi-Cell-XR (Beckman Coulter).
# [5] = system: ID8agg murine ovarian cancer cells; assay: In vitro viability (MTT) of CTRL versus PD-L1^KO ID8agg cells; assay type: cell-based, mouse; settings: monotherapy
# Experimental: as §2
# [6] = system: RT4 human bladder cancer cells; assay: In vitro viability (MTT) of CTRL versus PD-L1^KO RT4 cells; assay type: cell-based; settings: monotherapy
# Experimental: as §2
compound,measurement,setting,value
Cc1nnc(SCC2=C(C(=O)O)N3C(=O)[C@@H](NC(=O)Cn4cnnn4)[C@H]3SC2)s1 [cefazolin],synthetic lethality with Chk1i,RT4 cells,not as effective
CO/N=C(\C(=O)N[C@@H]1C(=O)N2C(C(=O)O)=C(CSc3nc(=O)c(=O)[nH]n3C)CS[C@H]12)c1csc(N)n1 [Ceftriaxone],synthetic lethality with Chk1i,RT4 cells,not as effective
atezolizumab,"viability of RT4 cells, single agent",[1],slightly reduced viability
CC1(C)S[C@@H]2[C@H](NC(=O)Cc3ccccc3)C(=O)N2[C@H]1C(=O)O [Penicillin G],synthetic lethality with Chk1i,RT4 cells,not induce synthetic lethality
CO/N=C(\C(=O)N[C@@H]1C(=O)N2C(C(=O)[O-])=C(C[N+]3(C)CCCC3)CS[C@H]12)c1csc(N)n1 [cefepime],Chk2,"[2]; FIGS. 44A-B, cells not given",depleted
same,"DNA damage, as measured via gH2AX","[2]; FIGS. 44A-B, cells not given",increased DNA damage
same,PD-L1,"[2]; FIGS. 44A-B, cells not given",depleted
same,Chk2 in vitro,"[2]; RT4 cells, 75 μM, 24-96 hours",deplete Chk2
same,PD-L1 expression in vitro,"[2]; RT4 cells, 80 μM",deplete PD-L1 expression
same,effect on rabusertib efficacy,"RT4 cells; FIG. 46B, cells not given",improves rabusertib efficacy
same,synthetic lethality with Chk1i,RT4 cells,elicited Chk1 inhibitor synthetic lethality in a PD-L1-dependent manner
same,expression of PD-L1 in cancer cells,PD-L1,decreased expression of PD-L1
"Nc1nc2c(ncn2CCOCP(=O)(O)O)c(=O)[nH]1 [PMEG, 9-(2-phosphonylmethoxyethyl) guanine]",autophagy,mTORC1,promote autophagy
same,mTORC1 signals,mTORC1,suppress mTORC1 signals
same,effect on cell viability,"PD-L1; over 2-3 days, human and mouse tumor lines",little effect on cell viability
same,expression of PD-L1 in cancer cells,PD-L1,decreased expression of PD-L1
CC(C)C[C@@H](C=O)NC(=O)[C@H](CC(C)C)NC(=O)[C@H](CC(C)C)NC(=O)OCc1ccccc1 [MG132] (Cbz-Leu-Leu-Leu-aldehyde),effect on CAMB-mediated PD-L1 reduction,PD-L1 in OVCAR5 cells,abolished CAMB-mediated PD-L1 reduction
same,PD-L1 expression,PD-L1 in OVCAR5 cells; by 6 hours after treatment,increased PD-L1 expression
COc1cccc(OCCCN)c1-c1cc(Nc2cnc(C#N)cn2)n[nH]1 [prexasertib],synthetic lethality in induced PD-L1^KO tumors,[3],exhibited synthetic lethality
C[C@@H](O)[C@H]1C(=O)N2C(C(=O)O)=C(S[C@@H]3CN[C@H](C(=O)N(C)C)C3)[C@H](C)[C@H]12 [meropenem],synthetic lethality with Chk1i,RT4 cells,not induce synthetic lethality
C[C@@H]1COCCN1c1cc(C2([S@](C)(=N)=O)CC2)nc(-c2cc[nH]c3nccc2-3)n1 [AZD6738],sensitivity of PD-L1^lo versus control 4T1 cells to the agent,[4],enhanced sensitivity
same,sensitivity of PD-L1^KO versus control ID8agg cells to the agent,[5]; listed as ATRi,enhanced sensitivity
CN(C)CCCOc1ccc(-c2ccc3ncc4c(c3c2)n(C2CCOCC2)c(=O)n4C)cn1 [AZD0156],sensitivity of PD-L1^KO versus control ID8agg cells to the agent,[5],Minimal effects
same,sensitivity of PD-L1^KO versus control RT4 cells to the agent,[6],Minimal effects
